# ChEMBL document CHEMBL3997840, “Kinase-independent phosphoramidate S1P1 receptor agonist benzyl ether derivatives” (Bioorg Med Chem Lett, 2017)
# Assays:
# Serum [1] = test: Drug metabolism in human serum assessed as monophosphate formation by measuring parent compound half life at 3 mg by 31P NMR method; assay type: ADME, cell-free
# Homo sapiens = organism: Homo sapiens; test: Selectivity ratio of EC50 for human S1P3 receptor to EC50 for human S1P1 receptor
# [2] = molecular target: Sphingosine 1-phosphate receptor 3 (Homo sapiens, UniProt Q99500); test: Agonist activity at human S1P3 receptor expressed in CHOK1 cell membranes by [35S]-GTPgammaS binding assay
# [3] = Chemical stability in aqueous buffer at pH 8 at 3 mg measured every 12 mins over 13 hrs by 31P NMR method; assay type: physicochemical; settings: pH 8, 13 h
# [4] = Chemical stability in aqueous buffer at pH 1.5 at 3 mg measured every 12 mins over 13 hrs by 31P NMR method; assay type: physicochemical; settings: pH 1.5, 13 h
# [5] = Drug metabolism assessed as carboxypeptidase Y (unknown origin)-mediated monophosphate formation at 3 mg measured every day over 2 weeks by mass spectroscopic method; assay type: ADME; settings: human, 336 h
# Serum [6] = test: Drug metabolism in human serum assessed as monophosphate formation at 3 mg after 12 hrs by mass spectroscopic method; assay type: ADME, cell-free
# [7] = Drug metabolism in mouse J1 cell derived neurons assessed as monophosphate formation at 3 mg after 4 days by mass spectroscopic method; assay type: ADME, cell-based; settings: j1 cell-derived neuron, 96 h
# Sequence of Sphingosine 1-phosphate receptor 3 (Q99500 whole entry): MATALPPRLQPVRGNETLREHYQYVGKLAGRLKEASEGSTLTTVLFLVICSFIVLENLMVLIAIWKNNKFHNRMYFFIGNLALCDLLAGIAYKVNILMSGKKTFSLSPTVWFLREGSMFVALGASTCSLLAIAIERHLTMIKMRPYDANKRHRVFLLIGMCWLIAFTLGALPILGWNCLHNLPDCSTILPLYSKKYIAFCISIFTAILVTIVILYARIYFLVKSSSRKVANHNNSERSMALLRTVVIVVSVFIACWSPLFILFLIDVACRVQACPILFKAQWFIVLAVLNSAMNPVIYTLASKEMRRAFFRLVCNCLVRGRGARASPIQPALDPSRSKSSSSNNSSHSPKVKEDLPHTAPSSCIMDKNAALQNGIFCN
structure (smiles),measurement,setting,value
Cc1ccc(CCCC(=O)c2ccc(COC[C@@](C)(N)COP(=O)(N[C@@H](C)C(=O)OCc3ccccc3)Oc3ccccc3)cc2)cc1 (some centres undefined),t1/2,Serum [1],14 h
Cc1ccc(CCCC(=O)c2ccc(COC[C@@](C)(N)COP(=O)(O)O)cc2)cc1,Ratio EC50,Homo sapiens,29
Cc1ccc(CCCC(=O)c2cc(C)c(COC[C@@](C)(N)COP(=O)(N[C@@H](C)C(=O)OCc3ccccc3)Oc3ccccc3)cc2C)cc1 (some centres undefined),t1/2,Serum [1],14 h
COC(=O)[C@H](C)NP(=O)(OC[C@](C)(N)COCc1cc(C)c(C(=O)CCCc2ccc(C)cc2)cc1C)Oc1ccccc1 (some centres undefined),t1/2,Serum [1],14 h
Cc1ccc(CCCC(=O)c2ccc(COC[C@@](C)(N)COP(=O)(N[C@@H](C)C(=O)OC(C)C)Oc3ccccc3)cc2)cc1 (some centres undefined),t1/2,Serum [1],14 h
Cc1ccc(CCCC(=O)c2cc(C)c(COC[C@@](C)(N)COP(=O)(N[C@@H](C)C(=O)OC(C)C)Oc3ccccc3)cc2C)cc1 (some centres undefined),t1/2,Serum [1],14 h
Cc1ccc(CCCC(=O)c2cc(C)c(COC[C@@](C)(N)COP(=O)(O)O)cc2C)cc1,EC50,[2],> 20 µM
same,Ratio EC50,Homo sapiens,> 3080
COC(=O)[C@H](C)NP(=O)(OC[C@](C)(N)COCc1ccc(C(=O)CCCc2ccc(C)cc2)cc1)Oc1ccccc1 (some centres undefined),Stability,[3],Stable
same,Stability,[4],Stable
same,t1/2,Serum [1],14 h
same,Drug metabolism,[5],Metabolite_Detected
same,Drug metabolism,Serum [6],Metabolite_Detected
same,Drug metabolism,[7],Metabolite_Detected
